Common to all, as to assay type: cell-based
The subject of one assay is Mero82 cells. In words: Mero82 proliferation and cell viability assay (CTG). Particulars: Mero82 cell line, 144 hours. On the procedure: Mero 82 cells were trypsinised, counted and plated at 400 cells/well in 200 μl of growth media in 96 well flat bottom tissue culture treated plates. The plated cells were incubated overnight at 37° C., 5% CO2 before being treated with compounds in triplicate for each assay point. 50 μl of the serially diluted compound was added to each well giving a final DMSO concentration of 0.5% per well and a total volume of 250 μl per well. The treated cells were incubated for 144 hours (6 days) at 37° C., 5% CO2. Following compound treatment, the remaining viable cells were detected using the Promega CellTiter-Glo 2.0 assay as follows: 150 μl of media was removed from each of the wells to be assayed and 100 μl of room temperature CellTiter-Glo 2.0 reagent was added. The plate was placed on an orbital shaker at 500 rpm at room temperature for 2 minutes, and then incubated without shaking for a further 10 minutes at room temperature. 150 μl of cell lysate was removed from each well and dispensed into a single well of a white opaque 96 well plate. Luminescence at 545 nm was read using a BMG CLARIOstar plate reader. The luminescent signal was directly proportional to number of viable cells, the percent of viable cells relative to the DMSO control was then calculated for each assay point. Percent viability relative to DMSO control is plotted against compound concentration and a curve fitted with non-linear regression in GraphPad Prism software. IC50 values were calculated using GraphPad Prism software as follows: For Relative IC50 values a non-constrained four-parameter logistic curve fit was used (Sigmoidal, 4PL, X is concentration). For Absolute IC50 values the baseline was constrained to Y=0 (Absolute IC50, X is concentration). Area Under the Curve (AUC): Prism computes area-under-the-curve by the trapezoidal method. The analysis sees a fitted curve as simply a series of connected XY points. Prism simply computes the area under the “curve” defined by connecting the points by straight lines. The units of the AUC are the units of the Y axis times units of the X axis.

The subject of a further assay is Mero14 cells. As to the kind of experiment: Mero14 proliferation and cell viability assay (CTG). The note with it: Mero14 cell line, 144 hours. On the procedure: Mero14 cells were trypsinised, counted and plated at 400 cells/well in 200 μl of growth media in 96 well flat bottom tissue culture treated plates. The plated cells were incubated overnight at 37° C., 5% CO2 before being treated with compounds in triplicate for each assay point. 50 μl of the serially diluted compound was added to each well giving a final DMSO concentration of 0.5% per well and a total volume of 250 μl per well. The treated cells were incubated for 144 hours (6 days) at 37° C., 5% CO2. Following compound treatment the remaining viable cells were detected using the Promega CellTiter-Glo 2.0 assay as follows: 150 μl of media was removed from each of the wells to be assayed and 100 μl of room temperature CellTiter-Glo 2.0 reagent was added. The plate was placed on an orbital shaker at 500 rpm at room temperature for 2 minutes, and then incubated without shaking for a further 10 minutes at room temperature. 150 μl of cell lysate was removed from each well and dispensed into a single well of a white opaque 96 well plate.
Luminescence at 545 nm was read using a BMG CLARIOstar plate reader. The luminescent signal was directly proportional to number of viable cells, the percent of viable cells relative to the DMSO control was then calculated for each assay point. Percent viability relative to DMSO control is plotted against compound concentration and a curve fitted with non-linear regression in GraphPad Prism software. IC50 values were calculated using GraphPad Prism software as follows: For Relative IC50 values, a non-constrained four-parameter logistic curve fit was used (Sigmoidal, 4PL, X is concentration). For Absolute IC50 values the baseline was constrained to Y=0 (Absolute IC50, X is concentration). Area Under the Curve (AUC): Prism computed area-under-the-curve by the trapezoidal method. The analysis sees a fitted curve as simply a series of connected XY points. Prism simply computes the area under the “curve” defined by connecting the points by straight lines. The units of the AUC are the units of the Y axis times units of the X axis.

Another assay has as its system SDM103T2 cells. As to the kind of experiment: SDM103T2 proliferation and cell viability assay (CTG). The note with it: SDM103T2 cell line, 144 hours. The procedure: SDM103T2 cells were trypsinised, counted and plated at the specified cell density in 200 μl of growth media in 96 well flat bottom tissue culture treated plates. The plated cells were incubated overnight at 37° C., 5% CO2 before being treated with compounds in triplicate for each assay point. 50 μl of the serially diluted compound was added to each well giving a final DMSO concentration of 0.5% per well and a total volume of 250 μl per well. The treated cells were incubated for 144 hours (6 days) at 37° C., 5% CO2. Following compound treatment the remaining viable cells were detected using the Promega CellTiter-Glo 2.0 assay as follows: 150 μl of media was removed from each of the wells to be assayed and 100 μl of room temperature CellTiter-Glo 2.0 reagent was added. The plate was placed on an orbital shaker at 500 rpm at room temperature for 2 minutes, and then incubated without shaking for a further 10 minutes at room temperature. 150 μl of cell lysate was removed from each well and dispensed into a single well of a white opaque 96 well plate. Luminescence at 545 nm was read using a BMG CLARIOstar plate reader. The luminescent signal was directly proportional to number of viable cells, the percent of viable cells relative to the DMSO control was then calculated for each assay point. Percent viability relative to DMSO control was plotted against compound concentration and a curve fitted with non-linear regression in GraphPad Prism software. EC50 and IC50 values were calculated using GraphPad Prism software as follows: For EC50 values a non-constrained four-parameter logistic curve fit was used (Sigmoidal, 4PL, X is concentration). For Absolute IC50 values the baseline was constrained to Y=0 (Absolute IC50, X is concentration). Area Under the Curve (AUC): Prism computes area-under-the-curve by the trapezoidal method. The analysis sees a fitted curve as simply a series of connected XY points. Prism simply computes the area under the “curve” defined by connecting the points by straight lines. The units of the AUC are the units of the Y axis times units of the X axis.

Bounds are passed on as bounds.

What is called EC50 is the concentration needed to bring the measured effect to its halfway point. Low values mean a more potent agent, high ones a less potent agent. Turning to `C=CC(=O)Nc1ccc(C)c(Oc2ccc(Cl)cc2)c1` [Compound 1-3, reference compound], the concentration for a half-maximal effect (EC50) in the assay on Mero82 cells, with Mero14 cells and in the assay on SDM103T2 cells was less than 200 nM throughout.

As to `FC(F)(F)c1ccc(CN2CCC(C3CC(Br)=NO3)CC2)cc1` (stereo not drawn) [Compound 1-2, reference compound], the values for the EC50 in the assay with Mero82 cells, with Mero14 cells and in the assay on SDM103T2 cells were more than 1000 nM, 200 to 1000 nM and more than 1000 nM, respectively.

`C[C@H](CO)NC(=O)c1cnc2c(C3=CCC4(CC3)CC(F)(F)C4)cccc2c1` [Compound 165, (R)-8-(2,2-difluorospiro[3.5]non-6-en-7-yl)-N-(1-hydroxypropan-2-yl)quinoline-3-carboxamide]: the half-maximal effective concentration (EC50) with Mero82 cells, in the assay with Mero14 cells and in the assay on SDM103T2 cells was less than 200 nM throughout.

As to `COc1cc(C2=CCC(C(F)(F)F)CC2)c2ncc(C(=O)N[C@H](C)CO)cc2c1` (stereo partly drawn) [Compound 110, N—((R)-1-hydroxypropan-2-yl)-6-methoxy-8-(4-(trifluoromethyl)cyclohex-1-en-1-yl)quinoline-3-carboxamide], the EC50 in the assay with Mero82 cells, in the assay on Mero14 cells and with SDM103T2 cells was less than 200 nM in each case.

As to `O=C(NCc1ncco1)c1cnc2c(C3=CCC(C(F)(F)F)CC3)cccc2c1` (stereo not drawn) [Compound 11, N-(oxazol-2-ylmethyl)-8-(4-(trifluoromethyl)cyclohex-1-en-1-yl)quinoline-3-carboxamide], the EC50 in the assay with Mero82 cells, in the assay on Mero14 cells and in the assay on SDM103T2 cells was less than 200 nM throughout.

As to `C[C@@H](NC(=O)c1cnc2c(C3=CCC4(CC3)CC4)cccc2c1)c1ncco1` [Compound 166, (R)—N-(1-(oxazol-2-yl)ethyl)-8-(spiro[2.5]oct-5-en-6-yl)quinoline-3-carboxamide], the EC50 with Mero82 cells, with Mero14 cells and in the assay on SDM103T2 cells was less than 200 nM each time.

In the case of `C[C@H](CO)NC(=O)c1cnc2c(C3=CCC(C(F)(F)F)CC3)cccc2c1` (stereo partly drawn) [Compound 7, N—((R)-1-hydroxypropan-2-yl)-8-(4-(trifluoromethyl)cyclohex-1-en-1-yl)quinoline-3-carboxamide], the EC50 with Mero82 cells, in the assay with Mero14 cells and in the assay with SDM103T2 cells was less than 200 nM throughout.

`O=C(NCc1ccn[nH]1)c1cnc2c(C3=CCC(C(F)(F)F)CC3)cccc2c1` (stereo not drawn) [Compound 47, N-((1H-pyrazol-5-yl)methyl)-8-(4-(trifluoromethyl)cyclohex-1-en-1-yl)quinoline-3-carboxamide]: the 50% effective concentration (EC50) with Mero82 cells, in the assay with Mero14 cells and in the assay on SDM103T2 cells was less than 200 nM in each case.

`COc1cc(C2=CCC(C(F)(F)F)CC2)c2ncc(C(=O)N[C@H](C)c3ncco3)cc2c1` (stereo partly drawn) [Compound 109, 6-methoxy-N—((R)-1-(oxazol-2-yl)ethyl)-8-(4-(trifluoromethyl)cyclohex-1-en-1-yl)quinoline-3-carboxamide]: the EC50 in the assay with Mero82 cells, in the assay on Mero14 cells and in the assay with SDM103T2 cells was less than 200 nM in each case.

As for `COC[C@H](CO)NC(=O)c1cnc2c(C3=CCC(C(F)(F)F)CC3)cccc2c1` (stereo partly drawn) [Compound 62, N—((S)-1-hydroxy-3-methoxypropan-2-yl)-8-(4-(trifluoromethyl)cyclohex-1-en-1-yl)quinoline-3-carboxamide], the concentration giving a half-maximal response (EC50) in the assay with Mero82 cells, in the assay on Mero14 cells and with SDM103T2 cells was less than 200 nM each time.

As to `C[C@H](NC(=O)c1cnc2c(C3=CC[C@@H](C(F)(F)F)CC3)cccc2c1)c1ncco1` (single isomer, unassigned) [Compound 19, N-(1-(oxazol-2-yl)ethyl)-8-(4-(trifluoromethyl)cyclohex-1-en-1-yl)quinoline-3-carboxamide], the concentration for a half-maximal effect (EC50) in the assay with Mero82 cells, with Mero14 cells and in the assay on SDM103T2 cells was less than 200 nM throughout.

The values are drawn from patent publication US20250223306A1, “TEAD INHIBITORS AND METHODS OF USE” (Sporos BioDiscovery, Inc., priority 2022, published 2025).
